Data published in PMC5995184, “Potent anti-leukemic activity of a specific cyclin-dependent kinase 9 inhibitor in mouse models of chronic lymphocytic leukemia” (Oncotarget, 2018).

Test system: blood and splenic leukocytes of wild-type mice
Experiment: Wild-type littermate control mice, oral LDC526, blood and spleen analysis
Type: in vivo
Description: Another widely used preclinical CLL model are TCL1 transgenic mice. The TCL1 transgenics represent a constitutive CLL model not involving the adoptive transfer of cells. This model mirrors the natural course of human IgVH-unmutated CLL including its disease progression. In addition, this model has also been widely used by others to test novel therapeutic molecules. […] Consecutive blood sampling allowed us to carry out a longitudinal study in individual TCL1 and control mice. For this, we chose a cohort of TCL1 and littermate control mice, which were 9-12 months old (Figure 5A). We chose TCL1 transgenics with high peripheral CLL cell (CD19+CD5+) counts (14.6±7.4/nl, mean±SEM). Given the presumably high leukemic burden in these aged TCL1 mice and the reduced general condition of some NSG mice receiving 75 mg/kg for 5 days we decided to dose TCL1 mice with 50 mg/kg daily for two consecutive days (Figure 5A). As the experiment was longitudinally designed and there was no effect expected of administering carrier to wild-type control mice we omitted this control group and established three experimental groups (Figure 5A). In order to minimize stress by collecting blood specimens we sampled blood three times, 8 days apart (days -5, +3 and +11; Figure 5A). Compared to blood smears prepared before commencing LDC526 treatment a marked decrease of peripheral blood leukocytes and CLL cells was observed two days post the last LDC526 administration to TCL1 transgenic mice (Figure 5B). In contrast to the carrier control treated TCL1 mice, white blood cell counts (WBC) dropped in LDC526-treated wild-type and TCL1 mice (Figure 5C). In comparison to wild-type control mice, where WBC dropped to 34% of baseline values, the WBC decrease in TCL1 mice was more dramatic dropping to 8% of baseline values (Figure 5D).
On day +11 (Figure 5A) the experiment was terminated as planned and spleens of the experimental mice were harvested. To be able to assess the impact of LDC526 on wild-type spleens we included n=3 of non-treated age-matched wild-type littermate mice as an additional experimental control group in the final spleen analysis. A caveat of this final spleen analysis posed the fact that in contrast to the longitudinal blood analysis, baseline spleen data of individual aged TCL1 mice were not available. As longitudinal analysis was not possible, we now compared spleen parameters between cohorts. Importantly, it is unknown to which extent the amount of circulating peripheral blood TCL1 CLL cells determined at baseline correlates with splenomegaly. […]
All mice were bred and housed at the University Hospital Essen animal care facility. […] Peripheral blood counts were determined with the VetABC analyzer (scil, Viernheim, Germany). […]

SMILES: COc1cc(F)ccc1-c1ncnc(Nc2cccc(CS(N)(=O)=O)c2)n1 [LDC526, (3-((4-(4-fluoro-2-methoxyphenyl)-1,3,5-triazin-2-yl)amino)phenyl)methane-sulfonamide]
- WBC, percent of baseline values (50 mg/kg daily for two days, day +3): 34%
- concentration of wild-type blood T cells (50 mg/kg for two days): halved
- splenic B cell numbers, percent of untreated mice (day +11): 31%
- B cells, percent of baseline levels (peripheral blood): 3.7%
